Data on one compound can be found in publication PMC11066877, “Development and Characterization of Novel FAP-Targeted Theranostic Pairs: A Bench-to-Bedside Study” (Research, 2023).

Where two headings read alike, the source gives them in different places.

A short description of series [1]: microPET/CT imaging, ROI analysis, BxPC-3 tumor models. To be noted: nude (thymus-free), mouse, intravenous, 3 MBq, 1 h after tracer injection. Type of series: in vivo, mice. How it is done:
(§1) A human pancreatic cancer cell line BxPC-3 and a murine pancreatic cancer cell Panc-02 were obtained from the American Type Culture Collection. The pancreatic cancer cell line T3M-4 was purchased by MeisenCTCC (Zhejiang, China). BxPC-3 and T3M-4 cell lines were grown in RPMI 1640 medium (Shanghai BasalMedia Technologies Co., LTD.) containing 10% FBS (GE Healthcare, Chicago, IL, USA) and 1% penicillin–streptomycin solution (Invitrogen). To culture the Panc-02 cell line, a medium called Dulbecco’s modified Eagle medium from Shanghai BasalMedia Technologies Co., LTD. was used, which consisted of 10% FBS. The cell line HT-1080 was grown in MEM medium (Shanghai BasalMedia Technologies Co., LTD.) supplemented with 10% FBS, 1% penicillin-streptomycin solution, and 1% nonessential amino acids (NEAA-11140050; Gibco). A human fibrosarcoma cell line was stably transfected with FAP (HT1080-FAP) and cultured, as we previously described. All cell lines were cultured in a humid incubator with 5% CO2 at a temperature of 37 °C. Approval was granted by the Institutional Animal Care and Use Committee (Renji Hospital, School of Medicine, Shanghai Jiao Tong University) for all experimental protocols and procedures related to animal care. Panc-02 cells were implanted by subcutaneous injection of 5 × 10^6 tumor cells suspended in 100 μl PBS and matrigel matrix (Corning) with equal volume into the upper limb flank of C57BL/6 mice (Shanghai Sheng Chang Biotechnology Co., Ltd.). Four- to 6-week-old thymus-free nude mice (GemPharmatech) were subcutaneously inoculated with BxPC-3, T3M-4, HT-1080, and HT1080-FAP cells (5 × 10^6 in 100 μl of PBS mixing with 100 μl matrigel matrix) in the right shoulder. […]
(§2) MicroPET imaging was performed on isoflurane-anesthetized mice injected intravenously via the lateral tail vein with around 3 MBq (2.5 nmol) of the radioligand at certain times. […] The information was analyzed using OsiriX Lite software (Pixmeo SARL) and Inveon Research Workplace (Siemens Preclinical Solutions). […]

A short description of series [2]: microPET/CT imaging, ROI analysis, Panc-02 tumor models. Type of series: in vivo, mice. To be noted: C57BL/6, mouse, intravenous, 3 MBq, 1 h after tracer injection. The protocol: as §1, §2
Series [3] can be described thus: microPET/CT imaging, ROI analysis, HT-1080 tumor models. To be noted: nude (thymus-free), mouse, intravenous, 3 MBq, 30 min p.i. In kind it is in vivo, mice. The protocol:
as §1, §2

A short description of series [4]: microPET/CT imaging, ROI analysis, HT1080-FAP tumor models. In kind it is in vivo, mice. To be noted: nude (thymus-free), mouse, intravenous. How it is done: (§3) A human pancreatic cancer cell line BxPC-3 and a murine pancreatic cancer cell Panc-02 were obtained from the American Type Culture Collection. The pancreatic cancer cell line T3M-4 was purchased by MeisenCTCC (Zhejiang, China). BxPC-3 and T3M-4 cell lines were grown in RPMI 1640 medium (Shanghai BasalMedia Technologies Co., LTD.) containing 10% FBS (GE Healthcare, Chicago, IL, USA) and 1% penicillin–streptomycin solution (Invitrogen). To culture the Panc-02 cell line, a medium called Dulbecco’s modified Eagle medium from Shanghai BasalMedia Technologies Co., LTD. was used, which consisted of 10% FBS. The cell line HT-1080 was grown in MEM medium (Shanghai BasalMedia Technologies Co., LTD.) supplemented with 10% FBS, 1% penicillin-streptomycin solution, and 1% nonessential amino acids (NEAA-11140050; Gibco). A human fibrosarcoma cell line was stably transfected with FAP (HT1080-FAP) and cultured, as we previously described. All cell lines were cultured in a humid incubator with 5% CO2 at a temperature of 37 °C. Approval was granted by the Institutional Animal Care and Use Committee (Renji Hospital, School of Medicine, Shanghai Jiao Tong University) for all experimental protocols and procedures related to animal care. Panc-02 cells were implanted by subcutaneous injection of 5 × 10^6 tumor cells suspended in 100 μl PBS and matrigel matrix (Corning) with equal volume into the upper limb flank of C57BL/6 mice (Shanghai Sheng Chang Biotechnology Co., Ltd.). Four- to 6-week-old thymus-free nude mice (GemPharmatech) were subcutaneously inoculated with BxPC-3, T3M-4, HT-1080, and HT1080-FAP cells (5 × 10^6 in 100 μl of PBS mixing with 100 μl matrigel matrix) in the right shoulder. Follow-up microPET/CT imaging and ex vivo biodistribution experiments were performed when the tumor diameter reached 8 to 9 mm.
MicroPET imaging was performed on isoflurane-anesthetized mice injected intravenously via the lateral tail vein with around 3 MBq (2.5 nmol) of the radioligand at certain times. Regarding the FD1 blocking group, an excessive amount of unlabeled FD1 (200-fold) was simultaneously injected with [^68Ga]Ga-DOTA-FD1 into the tail vein of another batch of mice. Images were acquired using an IRIS PET/CT system (Inviscan Imaging Systems). PET data were reconstructed using a nonscatter-corrected 3D-ordered subset expectation […]/maximum a posteriori (OSEM3D/MAP) algorithm. The information was analyzed using OsiriX Lite software (Pixmeo SARL) and Inveon Research Workplace (Siemens Preclinical Solutions). The percentage of injected dose per gram of tissue (%ID/g, mean ± SD) was utilized to present the distribution of tracers in the ROI, encompassing tumor, heart, lung, liver, kidney, and muscle.

Series [5] can be described thus: Ex vivo biodistribution after imaging, HT-1080 tumor models. In kind it is in vivo, mice. As to conditions: nude (thymus-free), mouse, intravenous, 3 MBq, total radioactivity, after imaging at 30 min p.i., read-out: tumor uptake (biodistribution study). The protocol:
A human pancreatic cancer cell line BxPC-3 and a murine pancreatic cancer cell Panc-02 were obtained from the American Type Culture Collection. The pancreatic cancer cell line T3M-4 was purchased by MeisenCTCC (Zhejiang, China). BxPC-3 and T3M-4 cell lines were grown in RPMI 1640 medium (Shanghai BasalMedia Technologies Co., LTD.) containing 10% FBS (GE Healthcare, Chicago, IL, USA) and 1% penicillin–streptomycin solution (Invitrogen). To culture the Panc-02 cell line, a medium called Dulbecco’s modified Eagle medium from Shanghai BasalMedia Technologies Co., LTD. was used, which consisted of 10% FBS. The cell line HT-1080 was grown in MEM medium (Shanghai BasalMedia Technologies Co., LTD.) supplemented with 10% FBS, 1% penicillin-streptomycin solution, and 1% nonessential amino acids (NEAA-11140050; Gibco). […]
After imaging collection and image reconstruction, samples from euthanized experimental mice, including blood and multiple significant organs, were harvested and weighed. The radioactivity in each collected tissue was counted using an automated gamma counter (Wizard 2480, PerkinElmer) and the accumulation of radioactivity in different tissues and organs was quantified and expressed as %ID/g (mean ± SD). […] At the end of each probe imaging and radioactivity counting study, tumor tissues were fixed in paraformaldehyde tissue fixative. […]

A short description of series [6]: Ex vivo biodistribution after imaging, HT1080-FAP tumor models. Type of series: in vivo, mice. As to conditions: nude (thymus-free), mouse, intravenous, total radioactivity. How it is done: as §3
After imaging collection and image reconstruction, samples from euthanized experimental mice, including blood and multiple significant organs, were harvested and weighed. The radioactivity in each collected tissue was counted using an automated gamma counter (Wizard 2480, PerkinElmer) and the accumulation of radioactivity in different tissues and organs was quantified and expressed as %ID/g (mean ± SD). [^177Lu]Lu-DOTA-FD1 (~1.11 MBq, n = 3), [^177Lu]Lu-DOTA-FD2 (~1.11 MBq, n = 3), and [^177Lu]Lu-DOTA-FD3 (~1.11 MBq, n = 3) were injected into the tail vein of free nude mice at 6 h, 24 h, and 24 h for ex vivo biodistribution to verify the circulation time of the 3 probes in vivo. Biodistribution data from tumor-bearing mice injected with [^177Lu]Lu-DOTA-FD3 at 45 h (~1.11 MBq, n = 4) and 90 h (~1.11 MBq, n = 3) validated the prolonged enrichment of the probe at the tumor site. At the end of each probe imaging and radioactivity counting study, tumor tissues were fixed in paraformaldehyde tissue fixative. Briefly, sections of 10 μm were cut and stained for H&E following the standard protocols. IHC staining with a FAP antibody (ab227703, Abcam) was performed only on tumor tissues following accepted techniques.

Series [7] can be described thus: [68Ga]Ga-DOTA-FD1 PET/CT imaging in tumor patients. To be noted: human. In kind it is in vivo, human. How it is done:
(§4) This clinical trial received ethical approval from the institutional review board of The First Affiliated Hospital of Xiamen University and has been registered at ClinicalTrials.gov (NCT04849247). All healthy volunteers (n = 3) and patients (n = 6) provided written informed consent before participation. There was no need for any particular preparation for [^68Ga]Ga-DOTA-FD1 PET/CT. Each participant was administered a dose of [^68Ga]Ga-DOTA-FD1 at a rate of 3.0 to 3.7 MBq/kg. Adverse events were under observation for 4 h after the injection of [^68Ga]Ga-DOTA-FD1. A hybrid PET/CT system (Discovery MI, GE Healthcare, Milwaukee, WI, USA) was used to perform static PET/CT imaging after 60 min of injection. PET/CT scan was conducted from the head region to the upper thighs (for [^68Ga]Ga-DOTA-FD1 PET/CT). For the CT scan, the parameters utilized were 110 kV, 80 mA, and a slice thickness measuring 3.75 mm. The obtained data were transferred to the Advantage Workstation (version AW 4.7, GE Healthcare). The Bayesian penalized likelihood reconstruction algorithm (Q.clear, GE Healthcare) was utilized for image reconstruction, employing a penalization factor (beta) of 500. For tumor staging/restaging, a total of 6 patients received paired PET/CT imaging using [^68Ga]Ga-DOTA-FD1. In terms of quantitative assessment, the maximum standardized uptake value (SUVmax) and the mean SUV (SUVmean) were employed to quantify the uptake of the radiopharmaceutical in both normal organs and tumor tissues.

Series [8] relates to tumor lesions of patients. Put plainly: [68Ga]Ga-DOTA-FD1 PET/CT imaging in tumor patients. In kind it is in vivo, human. As to conditions: for Lymph node metastases Median SUVmax (range) / Primary tumor Median SUVmax: initial staging. The protocol:
as §4

The nature of series [9]: Safety and biodistribution of [68Ga]Ga-DOTA-FD1 in healthy volunteers and patients. In kind it is in vivo, human. The protocol:
as §4, with “For tumor staging/restaging, a total of 6 patients received paired PET/CT imaging using [^68Ga]Ga-DOTA-FD1.” left out

Consider `CCCCCC(=O)N[C@H]1CSCc2cc(CSCCNC(=O)[C@H](CCCCN)NC(=O)[C@@H](NC(=O)[C@H](CCSC)NC(=O)CN3CCN(CC(=O)O)CCN(CC(=O)O)CCN(CC(=O)O)CC3)C(C)C)cc(c2)CSC[C@@H](C(=O)O)NC(=O)[C@H](Cc2ccccc2)NC(=O)[C@H](CCC(N)=O)NC(=O)[C@H]([C@@H](C)O)NC(=O)[C@@H]2CCCN2C(=O)[C@@H]2CCCN2C1=O` [[^68Ga]Ga-DOTA-FD1, metal not drawn], for which the tissue uptake at 1 h in series [1] stood at 0.96 ± 0.07 %ID/g; in [2] it was 0.92 ± 0.22 %ID/g. The results for the tissue uptake at 0.5 h in series [3] and in [5] were 1.97 ± 0.45 %ID/g and 1.02 ± 0.41 %ID/g, respectively. Also, the tissue uptake in [4] (750 ug, HT1080-FAP tumor, co-injected excess unlabeled FD1 (750 μg), read-out: tumor uptake (ROI analysis) upon FD1 blocking) stood at 2.63 ± 1.28 %ID/g; in series [4] (3 MBq, HT1080-FAP tumor, without blocking, read-out: tumor uptake (ROI analysis)) it was 8.85 ± 3.3 %ID/g; in series [4] (kidney, 750 ug, HT1080-FAP models, co-injected excess unlabeled FD1 (750 μg), read-out: kidney accumulation (ROI analysis) upon FD1 blocking), 10.3 ± 1.67 %ID/g; in [4] (kidney, 3 MBq, HT1080-FAP models, without blocking, read-out: kidney accumulation (ROI analysis)) it was 40.6 ± 4.76 %ID/g; in [6] (750 ug, HT1080-FAP tumor, co-injected excess unlabeled FD1 (750 μg), read-out: tumor uptake (biodistribution) upon FD1 blocking) it was 2.15 ± 0.58 %ID/g; in series [6] (3 MBq, HT1080-FAP tumor, without blocking, read-out: tumor uptake (biodistribution study)), 19.2 ± 6.51 %ID/g. Moreover, the tissue uptake was 30.3 ± 4.45 %ID/g in series [6] (kidney, 750 ug, HT1080-FAP models, co-injected excess unlabeled FD1 (750 μg), read-out: kidney accumulation (biodistribution analysis) upon FD1 blocking) and 110 ± 27.1 %ID/g in [6] (kidney, 3 MBq, HT1080-FAP models, without blocking, read-out: kidney accumulation (biodistribution analysis)). Further, the SUV at 1 h worked out at 8.86 SUV in series [7] (primary tumour lesions, 4 primary lesions, initial staging patients, 60 min after injection, read-out: median SUVmax of primary lesions) and 5.6 SUV in series [7] (15 lymph node metastases in 3 patients, read-out: median SUVmax of lymph node metastases). In addition, the “Bone and visceral metastases Median SUVmax (range)” value in series [8] (Patient 1, thyroid cancer, recurrence detection) is recorded as 2.87 (2.52–4.45). The “Lymph node metastases Median SUVmax (range)” value is recorded as 4.29 (4.02–4.57) in [8] (Patient 3, esophagus cancer) and 5.67 (4.14–7.76) in series [8] (Patient 4, NPC). In addition, the “Primary tumor Median SUVmax” value turned out to be 7.64 in [8] (Patient 3, esophagus cancer); 5.27 in series [8] (Patient 4, NPC); 10.07 in series [8] (Patient 5, esophagus cancer); 13.42 in series [8] (Patient 6, esophagus cancer). For the same compound, the “uptake in normal tissues and organs” value in series [9] (healthy volunteers (n = 3), PET 60 min after injection) is “negligible uptake in normal tissues and organs except the kidneys”. Further, the adverse events entry in series [9] (healthy volunteers and patients, during the injection and at 4 h follow-up, 3.0 to 3.7 MBq/kg) is listed as “No adverse events were observed”.
